Measurements reported in a melting point compilation (Tetko et al.; mined from patent text by program, amines drawn as free bases though some values may be those of a salt).

First: CC(C)CCS(=O)(=O)NC(=O)/C=C/c1cc(OC(C)C)nn1Cc1ccc(C(F)(F)F)cc1Cl
Second: OCCCc1cnoc1-c1ccc(C(F)(F)F)cc1
The melting point of the first is higher: 139 to 140 °C for the first, 85 to 86 °C for the second.

Compared with `COC(=O)C(CCS(N)(=O)=O)c1ccc([N+](=O)[O-])cc1F` (configuration not stated), `Cc1sc(C(=O)NN)c(S(N)(=O)=O)c1C#N` is higher in melting point: 99 to 101 °C for the first, 186 to 191 °C for the second.

First: CC1(Cn2nc(-c3ccc(OC(F)(F)F)cc3)oc2=O)Cn2cc([N+](=O)[O-])nc2O1 (configuration not stated)
Second: CC1(CN2CCCN(Cc3ccc(-c4ccccc4)cc3)CC2)Cn2cc([N+](=O)[O-])nc2O1 (configuration not stated)
The melting point of the first is higher: 146 to 148 °C for the first, 138 to 142 °C for the second.

First: CN1CCN(c2ncc3c(=O)c(C(=O)O)cn(C)c3n2)CC1
Second: Cc1c(C)c(N2CCN(c3ccc(F)cc3)CC2)c(C)c2c1OC(C)(C)C2=O
The melting point of the first is higher: 280 °C for the first, 176 to 179 °C for the second.

First: Cc1cccc(C)c1C(=O)c1nc[nH]c1C
Second: COc1cccc2c(Nc3ccccc3C)nc(N)nc12
The melting point of the first is lower: 179 to 181 °C for the first, 218 to 220 °C for the second.

First: OC(Cn1cncn1)(Cn1cnc(-c2ccc(F)cc2)n1)c1ccc(C(F)(F)F)cc1F (configuration not stated)
Second: Cc1c(C(=O)N[C@H](C)[C@](O)(Cn2cncn2)c2ccc(F)cc2F)cnn1-c1ccc(Br)cc1
The melting point of the first is lower: 96 to 100 °C for the first, 153 to 154 °C for the second.

First: OCC1OC(n2c(Cl)nc3ccc(Br)cc32)C(O)C1O (configuration not stated)
Second: Cc1noc(C)c1-c1ccc(OC2SCC(O)C(O)C2O)cc1 (configuration not stated)
The melting point of the first is lower: 152 to 153 °C for the first, 175 to 179 °C for the second.

First: Cc1c(-c2ccncc2)[nH]c2c1C(=O)CCC2
Second: CC(C)c1cc2c(cc1O)C(=O)CCC2
The melting point of the first is higher: 248 to 249 °C for the first, 149 to 150 °C for the second.

First: Cc1nc(-c2ccc(C(F)(F)F)cc2)sc1CSc1ccc2oc(C(=O)O)cc2c1
Second: CNc1nc(-c2ccc(C(F)(F)F)cc2)c2cc(C)sc2n1
The melting point of the first is lower: 207 to 209 °C for the first, 233 °C for the second.

First: O=C(Nc1ccccn1)c1cccc(-c2cccc(OCCc3ccc(Cl)cc3Cl)n2)c1
Second: N#Cc1cc(-c2ccoc2)c2ccc(Sc3cccc(-c4ccccc4)n3)cc2c1
The melting point of the first is lower: 113 to 115 °C for the first, 143 to 146 °C for the second.

Compared with `Clc1ccc(C(c2ccccc2)c2ccccc2)cn1`, `O=[N+]([O-])c1ccccc1N=Nc1ccccc1` is higher in melting point: 69.5 to 71 °C for the first, 139 to 141 °C for the second.

First: CO[C@H]1CCCC[C@@]1(OC)c1cccc(OCc2ccc3ccccc3c2)c1 (racemic)
Second: Cc1nc(C2CCCCC2)c2nc(-c3ccccc3)cc-2[nH]1
The melting point of the first is lower: 93 to 94 °C for the first, over 280 °C for the second.

First: COc1ccccc1-n1c(=O)[nH]c2c(C(N)=O)nc(-c3cccc4[nH]ncc34)nc21
Second: COc1ccc(Cn2c(=O)[nH]c3ccc(C)cc3c2=O)cc1
The melting point of the first is higher: 280 °C for the first, 263 to 265 °C for the second.

First: CCCc1nc(SSc2nc(CCC)n(-c3ccc([N+](=O)[O-])cc3)n2)nn1-c1ccc([N+](=O)[O-])cc1
Second: CCCCCCCOc1ccc(-c2ccc(N=Nc3ccc([N+](=O)[O-])cc3)cc2)cc1
The melting point of the first is higher: 172 °C for the first, 147 to 148 °C for the second.

Compared with `CC#COc1cc(-n2c(=O)n3n(c2=S)COCC3)c(Cl)cc1Cl`, `COC(=O)c1ccc2c(c1)[C@@H](N1CCCC1=O)[C@H](O)C(C)(C)O2` (relative stereo) is higher in melting point: 188 to 190 °C for the first, 190 to 192 °C for the second.

First: Cc1cc2c(F)c(Oc3cc(Cl)nc(N)n3)ccc2[nH]1
Second: CCOC(=O)c1cc2c(C)c(-c3ccc(Cl)cc3)c(=O)oc2nc1C(=O)OCC
The melting point of the first is higher: 255 to 258 °C for the first, 179 to 181 °C for the second.

First: Nc1ccc(Cl)cc1C1=CCN(C/C=C/c2ccc(Cl)cc2)CC1
Second: Cc1cc(Cn2nnc(C(N)=O)c2N)cc(Cl)c1C(=O)c1ccc(Cl)cc1
The melting point of the first is lower: 168 to 170 °C for the first, 205 to 206 °C for the second.

First: CN1CCC(c2c[nH]c3ccc(C(=O)c4ccc(C(F)(F)F)cc4)cc23)CC1
Second: CC(C)(C)c1ccc(C(=O)Nc2cn3nc(NC4CC4)ccc3n2)cc1
The melting point of the first is lower: 160 to 162 °C for the first, 274 to 275 °C for the second.

First: CCOP(=O)(OCC)C(CC(C(=O)Nc1ccccn1)C(=O)c1ccccc1)P(=O)(OCC)OCC (configuration not stated)
Second: CCOC(=O)c1[nH]c2cc(Cl)cc(Cl)c2c1NCCC(=O)c1ccccc1Cc1ccccc1
The melting point of the first is lower: 104 to 105 °C for the first, 208 to 209 °C for the second.

First: O=[N+]([O-])c1ccc(OC2CCN(c3ccncc3)CC2)cc1
Second: Cc1c(NC(=O)c2ccc(OCC3CCOC3)cc2)ccc2cc(CN3CCC(C)(O)CC3)cnc12 (configuration not stated)
The melting point of the first is lower: 142 °C for the first, 160 to 162 °C for the second.

Compared with `CCCc1nc2c(c(C)c(C)n3nnnc23)n1CC(C)(C)NS(C)(=O)=O`, `CCCC(=O)NN=C(C)c1sc(C)nc1C` is lower in melting point: 190 to 192 °C for the first, 124 °C for the second.

First: Oc1ccc(NC2CCc3cc(O)ccc3C2)cc1 (configuration not stated)
Second: CCCCC1c2ccccc2-c2ccccc2N1S(=O)(=O)c1ccc(O)cc1 (configuration not stated)
The melting point of the first is higher: 193 to 195 °C for the first, 149 to 151 °C for the second.

First: COc1ccc(N(C(=O)CN2C(=O)C(Cc3nn(Cc4ccccc4)c4ccccc34)(OC)C(=O)Nc3ccccc32)C(C)C)cc1 (configuration not stated)
Second: CCCCCCCNC(=O)Nc1ccccc1C(=O)NCCSc1nc(-c2ccccc2)c(-c2ccccc2)[nH]1
The melting point of the first is lower: 202 to 204 °C for the first, 285 to 288 °C for the second.

First: C#CCN1CCC=C(c2ccc(C(C)(C)CCCCCC)cc2O)C1
Second: CCCCc1cnc2ccccc2c1Cc1ccc(C(=O)O)cc1
The melting point of the first is lower: 116 to 117 °C for the first, 233 °C for the second.

Compared with `ON=C(c1ccccc1)c1nsc2nc3ccccc3n12`, `CC(C)(C)n1ncc(C(=O)c2ccc(S(C)(=O)=O)c(-c3ccccc3)c2Cl)c1O` is higher in melting point: 247 °C for the first, 262 to 264 °C for the second.

First: COc1ccc(C(=O)C(=O)c2ccc(-c3ccc(F)cc3)s2)cc1C
Second: COc1c(C2CCN(CCCCNC(=O)c3[nH]nc(-c4ccc(C#N)cc4)c3C)CC2)ccc2c1CCCC2
The melting point of the first is lower: 165 °C for the first, 222 °C for the second.

First: N=C(N)NCCC[C@H](NC(=O)c1ccccc1SSc1ccccc1C(=O)N[C@@H](CCCNC(=N)N)C(=O)O)C(=O)O
Second: CCOC(=O)COc1ccc2c(=O)c3ccccc3oc2c1Cl
The melting point of the first is higher: 208 to 211 °C for the first, 183 to 185 °C for the second.

Compared with `CC(COc1ccccc1C1NC(C(=O)O)CS1)O[N+](=O)[O-]` (configuration not stated), `O=C1NCC(c2ccc(Cl)cc2)C1c1ccccc1` (configuration not stated) is higher in melting point: 127 to 130 °C for the first, 130 to 135 °C for the second.

Compared with `CNc1ccc(C(O)(C(F)(F)Cl)C(F)(F)Cl)cc1`, `Cc1cnc2c(c1-c1ccccc1)C(=O)N(Cc1cc(C(F)(F)F)cc(C(F)(F)F)c1)CCN(C)C2=O` is higher in melting point: 92 to 94 °C for the first, 203 to 205 °C for the second.

First: CCCCNS(=O)(=O)CC(O)(CCCC)C(O)C(N)CC1CCCCC1 (configuration not stated)
Second: COC(=O)NC1CCN(c2nc(N3CCOCC3)c3ncnc(N(C)Cc4ccccc4)c3n2)CC1
The melting point of the first is higher: 164 to 165 °C for the first, 110 °C for the second.

First: CCCn1ncc2c(C3C(=O)Nc4ccc(C#N)cc43)ncnc21 (configuration not stated)
Second: CCOCc1nc2c(N)nc3ccccc3c2n1CCCC(C)=O
The melting point of the first is higher: over 300 °C for the first, 173 to 175 °C for the second.

Compared with `CC(C)c1nc(CCOC(=O)OCCc2nc(C(C)C)c(Sc3cc(Cl)cc(Cl)c3)n2C)n(C)c1Sc1cc(Cl)cc(Cl)c1`, `CN1C(=O)C(c2ccc(OCCCCCBr)cc2)Sc2cc(Cl)ccc21` (configuration not stated) is lower in melting point: 157 to 159 °C for the first, 66 to 68 °C for the second.

First: CC(Cn1ncnn1)n1nnc2cc3c(=O)n(CCF)nnc3cc2c1=O (configuration not stated)
Second: CNC(=O)N(O)C(C)c1cc(C(C)(C)C)c(O)c(C(C)(C)C)c1 (configuration not stated)
The melting point of the first is higher: 196 to 198 °C for the first, 159 to 160 °C for the second.

Molecule `Nc1sc2c(c1C(=O)c1ccc(Br)c3ccccc13)CCCC2` has a melting point of 176 to 178 °C.
